The values that follow are results of earlier work, collected in patent US12508224B2, “Treating microvascular dysfunction” (EndoProtech, Inc., priority 2018, dated 2025).

The subject of this data set is glycocalyx.

Consider `CCCCCCCCCCCCC/C=C/[C@@H](O)[C@@H](N)COP(=O)(O)O` [SP, sphingosine-1-phosphate], for which the “levels needed in plasma to protect the stability of the glycocalyx” value is 100 to 300 nM.
